Patent US20260274891A1, “¿ OPIOID RECEPTOR AGONIST AND USE THEREOF” (CHENGDU AODA BIOTECHNOLOGY CO., LTD., priority 2023, published 2026)
pEC50: −log10 of the molar value. Like-named read-outs stand apart in the source and are kept apart here. Bridge positions count the residues as written; N and C are the ends. Square brackets hold non-standard residues; d marks the D form. Side chains are listed from the residue outwards. Peptide text beside a SMILES is read from it. I, II: the chains in the order shown. * marks the point of attachment. X12 = CCOc1ccc(C[C@@H](NC(=O)[C@H](N)Cc2ccccc2)C(=O)*)cc1; X5 = NCCCC[C@@H](NC(=O)CNC(=O)C1(N)CCN(*)CC1)C(N)=O; Piperidin1yl(4-NH2,4-COOH) = NC1(C(=O)O)CCN(*)CC1; Piperidinyl(4-NH2,4-CONH2) = NC(=O)C1(N)CCN(*)CC1; X1 = NCCCC[C@@H](NC(=O)C1(N)CCN(*)CC1)C(N)=O; X4 = NCCCC[C@H](NC(=O)C1(N)CCN(*)CC1)C(=O)O; X6 = NCCCC[C@H](NC(=O)C1(N)CCN(*)CC1)C(N)=O; dAla(cPr) = N[C@H](CC1CC1)C(=O)O; Trifluoroethyl = FC(F)(F)C*; Api = NC1(C(=O)O)CCNCC1; iPr = CC(C)*

Biological target: T1, human κ opioid receptor (OPRK1) (Homo sapiens, UniProt P41145)
T1 construct: expressed in transfected cells; host or cells: CHO-K1
T1 sequence (P41145 whole entry): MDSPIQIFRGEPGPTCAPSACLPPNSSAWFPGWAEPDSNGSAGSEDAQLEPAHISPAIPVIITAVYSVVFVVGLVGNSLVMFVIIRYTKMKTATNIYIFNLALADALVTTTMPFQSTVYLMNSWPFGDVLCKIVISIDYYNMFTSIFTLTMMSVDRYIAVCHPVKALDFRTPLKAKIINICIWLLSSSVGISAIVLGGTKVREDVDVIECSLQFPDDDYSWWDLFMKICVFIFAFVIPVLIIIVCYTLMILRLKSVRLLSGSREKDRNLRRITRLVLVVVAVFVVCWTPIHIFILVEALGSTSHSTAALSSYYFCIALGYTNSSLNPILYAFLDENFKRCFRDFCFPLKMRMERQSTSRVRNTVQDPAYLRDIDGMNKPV
Assay: Determination of activities of κ receptor agonists: inhibition of forskolin-stimulated cAMP release (HTRF) in stably transfected CHO-K1 cells
Assay type: cell-based
Details: for Relative Activity %: relative to Difelikefalin = 100.0
Source text: Gi-coupled human κ opioid receptor (OPRK1), upon stimulation with its specific opioid receptor agonists, can inhibit the intracellular adenylate cyclase pathway, and decrease cAMP levels. Forskolin can stimulate cAMP release in cell lines highly expressing opioid receptors. By stimulating cell lines stably transfected with opioid receptors, the inhibitory effect of a test compound on forskolin-stimulated cAMP release can be measured to determine the activity of the compound. The relative light units (RLU) from the cells after stimulation with different doses were measured via the homogeneous time-resolved fluorescence technique (HTRF), and the EC50 value of the agonist was subsequently calculated. This activity determination method is a currently commonly used method for determining the activities of opioid receptor agonists at home and abroad.
A CHO-K1 cell line stably expressing opioid receptors was used. Stably transfected cells were stimulated with various concentrations of agonists (under the stimulation of a certain concentration of forskolin). The relative light units from the cells after stimulation with different doses were measured, from which the EC50 value of the agonist was subsequently obtained by calculation.

[1] = CHO-K1 cell line stably expressing opioid receptors, forskolin-stimulated cAMP, HTRF, read-out: EC50

CCOc1ccc(C[C@@H](NC(=O)[C@H](N)Cc2ccccc2)C(=O)N[C@H](CC(C)C)C(=O)N[C@H](CCCCN)C(=O)N2CCC(N)(C(=O)N[C@@H](CCCCN)C(=O)O)CC2)cc1 [Compound 4, D-Phe-D-Tyr(Et)-D-Leu-D-Lys-4-aminopiperidine-4-carboxamide-Lys-OH] (H-[dF][dY](Et)[dL][dK]-X4; N-terminus assumed)
pEC50: 10.40
Relative Activity %: 1521.8%

CC(C)C[C@@H](NC(=O)[C@@H](Cc1ccc(Br)cc1)NC(=O)[C@H](N)Cc1ccccc1)C(=O)N[C@H](CCCCN)C(=O)N1CCC(N)(C(=O)N[C@H](CCCCN)C(N)=O)CC1 [Compound 119, D-Phe-D-Phe(4-Br)-D-Leu-D-Lys-4-aminopiperidine-4-carboxamide-D-Lys-NH2]
pEC50: 10.21
Relative Activity %: 987.3%

CCOc1ccc(C[C@@H](NC(=O)[C@H](N)Cc2ccccc2)C(=O)N[C@H](CC(C)C)C(=O)N[C@H](CCCCN)C(=O)N2CCC(N)(C(=O)NCC(=O)N[C@H](CCCCN)C(N)=O)CC2)cc1 [Compound 49, D-Phe-D-Tyr(Et)-D-Leu-D-Lys-4-aminopiperidine-4-carboxamide-Gly-D-Lys-NH2] (H-[dF][dY](Et)[dL][dK]-X5; N-terminus assumed)
pEC50: 10.35
Relative Activity %: 1364.5%

CC(C)C[C@@H](NC(=O)[C@@H](Cc1ccc(OCC(F)(F)F)cc1)NC(=O)[C@H](N)Cc1ccccc1)C(=O)N[C@H](CCCCN)C(=O)N1CCC(N)(C(=O)O)CC1 [Compound 92, D-Phe-D-Tyr(CH2CF3)-D-Leu-D-Lys-4-aminopiperidine-4-carboxamide-OH] (H-[dF][dY](Trifluoroethyl)[dL][dK]-{Piperidin1yl(4-NH2,4-COOH)}; N-terminus assumed)
pEC50: 9.96
Relative Activity %: 558.6%

CC(C)C[C@@H](NC(=O)[C@@H](Cc1ccc(N)cc1)NC(=O)[C@H](N)Cc1ccccc1)C(=O)N[C@H](CCCCN)C(=O)N1CCC(N)(C(=O)N[C@H](CCCCN)C(N)=O)CC1 [Compound 141, D-Phe-D-Phe(4-NH2)-D-Leu-D-Lys-4-aminopiperidine-4-carboxamide-D-Lys-NH2]
pEC50: 9.95
Relative Activity %: 543.1%

CC(C)C[C@@H](NC(=O)[C@@H](Cc1ccc(OCC(F)(F)F)cc1)NC(=O)[C@H](N)Cc1ccccc1)C(=O)N[C@H](CCCCN)C(=O)N1CCC(N)(C(N)=O)CC1 [Compound 91, D-Phe-D-Tyr(CH2CF3)-D-Leu-D-Lys-4-aminopiperidine-4-carboxamide-NH2] (H-[dF][dY](Trifluoroethyl)[dL][dK]-{Piperidinyl(4-NH2,4-CONH2)}; N-terminus assumed)
pEC50: 9.96
Relative Activity %: 550.0%

CC(C)C[C@@H](NC(=O)[C@@H](Cc1ccc(Br)cc1)NC(=O)[C@H](N)Cc1ccccc1)C(=O)N[C@H](CCCCN)C(=O)N1CCC(N)(C(=O)N[C@@H](CCCCN)C(=O)O)CC1 [Compound 118, D-Phe-D-Phe(4-Br)-D-Leu-D-Lys-4-aminopiperidine-4-carboxamide-Lys-OH]
pEC50: 10.20
Relative Activity %: 951.7%

CC(C)C[C@@H](NC(=O)[C@@H](Cc1ccc(Cl)cc1)NC(=O)[C@H](N)Cc1ccccc1)C(=O)N[C@H](CCCCN)C(=O)N1CCC(N)(C(=O)N[C@H](CCCCN)C(=O)O)CC1 [Compound 114, D-Phe-D-Phe(4-C1)-D-Leu-D-Lys-4-aminopiperidine-4-carboxamide-D-Lys-OH]
pEC50: 10.29
Relative Activity %: 1179.0%

CCOc1ccc(C[C@@H](NC(=O)[C@H](N)Cc2ccccc2)C(=O)N[C@H](CC(C)C)C(=O)N[C@H](CCCCN)C(=O)N2CCC(N)(C(=O)N[C@@H](CCCCN)C(=O)N[C@@H](CCCCN)C(=O)N[C@@H](CCCCN)C(=O)N[C@@H](CCCCN)C(=O)N[C@@H](CCCCN)C(=O)N[C@@H](CCCCN)C(=O)O)CC2)cc1 [Compound 14, D-Phe-D-Tyr(Et)-D-Leu-D-Lys-4-aminopiperidine-4-carboxamide-Lys-Lys-Lys-Lys-Lys-Lys-OH] (H-[Api]([dK-dL-X12])KKKKKK-OH; N-terminus assumed)
pEC50: 10.18
Relative Activity %: 927.0%

CC(C)C[C@@H](NC(=O)[C@@H](Cc1ccccc1)NC(=O)[C@H](N)Cc1ccccc1)C(=O)N[C@H](CCCCN)C(=O)N1CCC(N)(C(=O)O)CC1 [Difelikefalin, D-Phe-D-Phe-D-Leu-D-Lys-4-caminopiperidine-4-arboxylicacid-OH, reference compound]
pEC50 [1]: 9.22

COc1ccc(C[C@@H](NC(=O)[C@H](N)Cc2ccccc2)C(=O)N[C@H](CC(C)C)C(=O)N[C@H](CCCCN)C(=O)N2CCC(N)(C(=O)N[C@@H](CCCCN)C(N)=O)CC2)cc1 [Compound 87, D-Phe-D-Tyr(Me)-D-Leu-D-Lys-4-aminopiperidine-4-carboxamide-Lys-NH2] (H-[dF][dY](Me)[dL][dK]-X6; N-terminus assumed)
pEC50: 10.37
Relative Activity %: 1438.9%

CC(C)C[C@@H](NC(=O)[C@@H](Cc1ccc(I)cc1)NC(=O)[C@H](N)Cc1ccccc1)C(=O)N[C@H](CCCCN)C(=O)N1CCC(N)(C(=O)N[C@H](CCCCN)C(N)=O)CC1 [Compound 125, D-Phe-D-Phe(4-I)-D-Leu-D-Lys-4-aminopiperidine-4-carboxamide-D-Lys-NH2]
pEC50: 10.26
Relative Activity %: 1104.0%

COc1ccc(C[C@@H](NC(=O)[C@H](N)Cc2ccccc2)C(=O)N[C@H](CC(C)C)C(=O)N[C@H](CCCCN)C(=O)N2CCC(N)(C(=O)O)CC2)cc1 [Compound 86, D-Phe-D-Tyr(Me)-D-Leu-D-Lys-4-aminopiperidine-4-carboxamide-OH] (H-[dF][dY](Me)[dL][dK]-{Piperidin1yl(4-NH2,4-COOH)}; N-terminus assumed)
pEC50: 9.92
Relative Activity %: 501.0%

CC(C)C[C@@H](NC(=O)[C@@H](Cc1ccc(F)cc1)NC(=O)[C@H](N)Cc1ccccc1)C(=O)N[C@H](CCCCN)C(=O)N1CCC(N)(C(=O)N[C@@H](CCCCN)C(N)=O)CC1 [Compound 105, D-Phe-D-Phe(4-F)-D-Leu-D-Lys-4-aminopiperidine-4-carboxamide-Lys-NH2]
pEC50: 10.10
Relative Activity %: 762.8%

CC(C)C[C@@H](NC(=O)[C@@H](Cc1ccc(I)cc1)NC(=O)[C@H](N)Cc1ccccc1)C(=O)N[C@H](CCCCN)C(=O)N1CCC(N)(C(N)=O)CC1 [Compound 121, D-Phe-D-Phe(4-I)-D-Leu-D-Lys-4-aminopiperidine-4-carboxamide-NH2]
pEC50: 9.91
Relative Activity %: 496.1%

CCOc1ccc(C[C@@H](NC(=O)[C@H](N)Cc2ccccc2)C(=O)N[C@H](CC2CC2)C(=O)N[C@H](CCCCN)C(=O)N2CCC(N)(C(=O)N[C@@H](CCCCN)C(N)=O)CC2)cc1 [Compound 69, D-Phe-D-Tyr(Et)-D-cyclopropylalanine-D-Lys-4-aminopiperidine-4-carboxamide-Lys-NH2] (H-[dF][dY](Et)[dAla(cPr)][dK]-X6; N-terminus assumed)
pEC50 [1]: 10.37
Relative Activity %: 1432.1%

CC(C)C[C@@H](NC(=O)[C@@H](Cc1ccc(OC(C)C)cc1)NC(=O)[C@H](N)Cc1ccccc1)C(=O)N[C@H](CCCCN)C(=O)N1CCC(N)(C(=O)N[C@H](CCCCN)C(N)=O)CC1 [Compound 101, D-Phe-D-Tyr(Ipr)-D-Leu-D-Lys-4-aminopiperidine-4-carboxamide-D-Lys-NH2] (H-[dF][dY](iPr)[dL][dK]-X1; N-terminus assumed)
pEC50: 10.14
Relative Activity %: 834.1%

CCc1ccc(C[C@@H](NC(=O)[C@H](N)Cc2ccccc2)C(=O)N[C@H](CC(C)C)C(=O)N[C@H](CCCCN)C(=O)N2CCC(N)(C(=O)N[C@@H](CCCCN)C(N)=O)CC2)cc1 [Compound 131, D-Phe-D-Phe(4-Et)-D-Leu-D-Lys-4-aminopiperidine-4-carboxamide-Lys-NH2]
pEC50: 9.87
Relative Activity %: 454.5%

CC(C)C[C@@H](NC(=O)[C@@H](Cc1ccc(I)cc1)NC(=O)[C@H](N)Cc1ccccc1)C(=O)N[C@H](CCCCN)C(=O)N1CCC(N)(C(=O)N[C@@H](CCCCN)C(N)=O)CC1 [Compound 123, D-Phe-D-Phe(4-I)-D-Leu-D-Lys-4-aminopiperidine-4-carboxamide-Lys-NH2]
pEC50: 10.27
Relative Activity %: 1135.0%

CCOc1ccc(C[C@@H](NC(=O)[C@H](N)Cc2ccccc2)C(=O)N[C@H](CC(C)C)C(=O)N[C@H](CCCCN)C(=O)N2CCC(N)(C(=O)N[C@H](CCCCN)C(=O)N[C@H](CCCCN)C(=O)N[C@H](CCCCN)C(=O)N[C@H](CCCCN)C(=O)N[C@H](CCCCN)C(=O)N[C@H](CCCCN)C(N)=O)CC2)cc1 [Compound 25, D-Phe-D-Tyr(Et)-D-Leu-D-Lys-4-aminopiperidine-4-carboxamide-D-Lys-D-Lys-D-Lys-D-Lys -D-Lys-D-Lys-NH2] (H-[Api]([dK-dL-X12])[dK][dK][dK][dK][dK][dK]-NH2; N-terminus assumed)
pEC50: 10.16
Relative Activity %: 887.7%

CCOc1ccc(C[C@@H](NC(=O)[C@H](N)Cc2ccccc2)C(=O)N[C@H](CC(C)C)C(=O)N[C@H](CCCCN)C(=O)N2CCC(N)(C(=O)NCC(=O)NCC(=O)N[C@H](CCCCN)C(=O)O)CC2)cc1 [Compound 54, D-Phe-D-Tyr(Et)-D-Leu-D-Lys-4-aminopiperidine-4-carboxamide-Gly-Gly-D-Lys-OH] (I: H-[Api]GG[dK]-OH / II: H-[dF][dY](Et)[dL][dK]; amide I:1-II:C; N-terminus assumed)
pEC50: 10.33
Relative Activity %: 1289.2%
